Measured values: patent US20090215713A1, “Use of atp for the manufacture of a medicament for the prevention and treatment of oxidative stress and related conditions” (priority 2004, published 2009)

What was measured:
[1] = test system: mice bearing colon tumour; conditions: daily intraperitoneal injections of 25 mmol/L for 10 days; cited from earlier work
[2] = Randomized clinical trial of ATP in advanced non-small-cell lung cancer (prior art); assay type: in vivo, human; conditions: unpublished data 2005
[3] = test system: GSH and GSH/GSSG ratios; assay: Intracellular GSH and GSH/GSSG ratios in whole blood after γ-irradiation; assay type: cell-based; conditions: 300 μM ATP, 16 Gy
Description: Samples with 5 ml of blood were pre-incubated with 300 μM ATP or medium (control) for 30 minutes. Then, at t=0, each blood sample was irradiated with γ-radiation at a dose of 16 Gy. Preceding irradiation (baseline) and at 1 h, 3 h and 5 h post-irradiation, a sample was taken for analysis of intracellular GSH and GSH/GSSG ratios according to standard methods, as well as for cytokine analysis by the ELISA method.

[4] = test system: TNF-α; assay: LPS+PHA-induced TNF-α secretion in whole blood from healthy subjects (ELISA); assay type: cell-based, human
Description: FIG. 7 Effect of ATP on LPS+PHA-induced TNF-α secretion in whole blood from healthy subjects. The whole blood was exposed to 10 μg/ml LPS and 1 μg/ml PHA with indicated concentrations of ATP for 24 h. The TNF-α released into the supernatants was analyzed using the ELISA method. Results are expressed in percentage, 100% being the TNF-α release under stimulation by LPS+PHA without ATP. […] Data are expressed as the mean values; error bars represent SEM. *, different from control (stimulation by LPS+PHA without ATP) (P<0.05).
FIG. 13 Effect of different purinergic compounds on LPS+PHA-induced TNF-α secretion in whole blood. The whole blood was exposed to 10 μg/ml LPS and 1 μg/ml PHA with the indicated purinergic compounds at the concentration of 300 μM for 24 h. The TNF-α released into the supernatant was analyzed using the ELISA method. Results are expressed in percentage, 100% being the TNF-α release under stimulation by LPS+PHA without addition of a purinergic compound (control). […] The TNF-α release induced by LPS+PHA from whole blood was not inhibited by UTP, UDP or CTP. Data are expressed as the mean values; error bars represent SEM.
Blood was collected from 8 healthy subjects in heparin containing vacutainer tubes. All incubations were performed in duplicate. ATP was dissolved in RPMI 1640 culture medium, at a final concentration of 1-300 μM, and blood pre-incubated with ATP at 5% CO2 at 37 DC for 30 min. After stimulation with LPS en PHA (10 and 1 μg/ml final concentration, respectively), the plates were incubated in 5% CO2 at 37° C. for 24 h. Cell-free supernatant fluids were then collected by centrifugation (6000 rpm, 10 min at 4° C.) and stored at −20° C. until tested for presence of cytokines. All cytokines were quantified by means of PeliKine Compact human ELISA kits (CLB/Sanquin, The Netherlands), based on appropriate and validated sets of monoclonal antibodies.
Whole blood was collected and stimulated with LPS+PHA as described for Experiment 2. ATP, dissolved in RPMI 1640 culture medium, was added to the blood at a final concentration of 1-1000 μM. The agonists were added in the same way as ATP, however their stock solutions are prepared in PBS and further diluted in medium. All incubations are performed in duplicate.

[5] = ATP infusions in pre-terminal cancer patients; assay type: in vivo, human
Description: Patients with different diseases received infusions of 10-75 μg/kg·min over 8-24 h, at intervals of 1-4 weeks in different randomized clinical trials. In all cases, the first. infusion was given under clinical supervision, subsequent infusions were given in the setting of private homes. Preliminary results in small numbers of patients with persistent rheumatoid arthritis, chronic fatigue syndrome, and cancer in the pre-terminal stage, and lung cancer during curative radiotherapy are given below.
This study was performed in patients of different tumour types with a life expectation of between 8 and 12 weeks. Patients received a maximum of 8 ATP infusions (8 h) at an infusion rate of max. 50 μg/kg·min. […] These subjective improvements were supported by objective outcome assessment using validated questionnaires for self-reliance (Groningen Activity Restriction Scale, GARS), fatigue (Short Fatigue Questionnaire, Smets et al.), and appetite (visual analogue scale, VAS). Below, some of the major effects in these five patients are summarized. Patient 1 (non-small-cell lung cancer): Despite a very low ATP dose (=20-30 μg/kg·min), this patient spontaneously reported that they felt more energetic. Before the study, the patient was not able to independently dress, undress, get in/out of bed, to get out of a chair, or to wash their hands, face or body. After 8 weeks of ATP, the patient was able to perform all of these activities independently. Over 8 weeks, their appetite improved markedly: EORTC-QLQ-30 (4-point scale): improvement from 4 to 1, and on VAS [0-100 mm], from 13 to 63 before lunch, and from 17 to 70 before dinner. The patient's treating pulmonologist concluded a “miraculous improvement” over the 8-week treatment period. On request of the patient, ATP infusions were continued. Patient 2 (primary liver carcinoma): This patient, who suffered from marked anorexia, spontaneously reported that they were “eating again like a building worker” after 8 weeks of ATP treatment. […] Furthermore, the patient felt less tired within 2 weeks of starting ATP infusions. Patient 3 (melanoma): This patient reported marked improvement in appetite. This was confirmed by outcome assessment (VAS), in addition, marked amelioration in fatigue and self reliance was found. After 8 infusion, the patient pledged to continue the ATP infusions. […] After 5 infusions, the patient decided that they felt so much better that they wanted to continue the infusions after the study. Patient 5 (pancreas cancer; study still ongoing): After 4 infusions, the patient noted to feel much more energetic.

[6] = test system: IL-10; assay: LPS+PHA-induced IL-10 secretion in whole blood under oxidative stress (H2O2); assay type: cell-based, human
Description: FIG. 11 Effect of ATP on LPS+PHA-induced IL-10 secretion in whole blood from healthy subjects under conditions of oxidative stress. Two concentrations of H2O2 (1 and 10 mM) were added to whole blood, together with the indicated concentrations of ATP. Then, blood was exposed to 10 μg/ml LPS and 1 μg/ml PHA, and incubated for 24 h. The IL-10 released into the supernatants was analyzed using the ELISA method. […] Data are expressed as the mean values; error bars represent SEM.
Whole blood of healthy subjects was collected as described for Experiment 2, and pre-incubated with 1 or 10 mM H2O2 at 5% CO2 and 37° C. for 15 min. Then, ATP was added to the blood at final concentrations of 1-300 μM for the 30 min incubation step, and then incubated as in Experiment 2 with LPS/PHA for 24 hours.

For `Nc1ncnc2c1ncn2[C@@H]1O[C@H](COP(=O)(O)OP(=O)(O)OP(=O)(O)O)[C@@H](O)[C@H]1O` [ATP, Adenosine 5′-triphosphate], the “effect on host weight loss” value [1] is given as “significant inhibition”, the “effect on blood sedimentation rate” value [2] is given as “neither an effect” and the “effect on irradiation-induced decrease in GSH and GSH/GSSG ratios” value [3] is given as “attenuation”. The “effect of purinergic compound on LPS+PHA-induced TNF-α release” value ([4]; 300 μM, 24 h) was “greatest inhibition”, the “effect on inhibiting TNFα and stimulating IL-10 production” value ([4]; LPS-PHA stimulated whole blood, Experiment 4) was “more effective” and the “effect on LPS+PHA-induced TNF-α release” value ([4]; indicated ATP concentrations, 24 h) was “significantly inhibited”. The “appetite VAS [0-100 mm] before dinner” value ([5]; Patient 1, before) was 17 mm, the “appetite VAS [0-100 mm] before lunch” value ([5]; Patient 1, before) was 13 mm and the “appetite, EORTC-QLQ-30 (4-point scale)” value ([5]; Patient 1, before) was 4. The “appetite VAS [0-100 mm] before dinner” value ([5]; Patient 1, over 8 weeks of ATP) was 70 mm, the “appetite VAS [0-100 mm] before lunch” value ([5]; Patient 1, over 8 weeks of ATP) was 63 mm and the “appetite, EORTC-QLQ-30 (4-point scale)” value ([5]; Patient 1, over 8 weeks of ATP) was 1. For the same molecule, the “appetite VAS (0-100)” value ([5]; Patient 2, before) was 20, the “appetite VAS (0-100)” value ([5]; Patient 2, within 4 weeks) was 95 and the “fatigue, 7-point scale (mean of four items of SFQ)” value ([5]; Patient 4, after 4 weeks of ATP infusions) was 5.8. The “fatigue, 7-point scale (mean of four items of SFQ)” value ([5]; Patient 4, before) was 2.8, the “patients spontaneously reporting marked improvements” value ([5]; patients who had completed >4 ATP infusions) was 5 out of 19 and the “increase in IL-10 release” value ([6]; 300 μM ATP, 1 or 10 mM H2O2, LPS-PHA) was 50-60%. The “effect on LPS+PHA-induced IL-10 release” value ([6]; 1 or 10 mM H2O2) was “significantly increased”.
